{
  "source": "patent US20240238314A1",
  "about": "“TREATMENT OF ESSENTIAL TREMOR” (Sage Therapeutics, Inc., priority 2021, published 2024)",
  "key": {"[1]": {"system": "individuals with essential tremor", "assay": "Phase 2 placebo-controlled study, Compound 1 60 mg once daily for 28 days (reducible to 45 mg or 30 mg): TETRAS performance subscale part 4 upper limb tremor score and tremor amplitude", "assay_type": "in vivo, human", "experimental": "4) Upper limb tremor: Tremor is assessed during three maneuvers: forward horizontal reach posture, lateral “wing beating” posture and finger-nose-finger testing. Each upper limb is assessed and scored individually. The forward horizontal reach posture is held for 5 seconds. The lateral wing beating posture is held for 20 seconds. The finger-nose-finger movement is executed three times. Amplitude assessment should be estimated using the maximally displaced point of the hand at the point of greatest displacement along any single plane. For example, the amplitude of a pure supination-pronation tremor, pivoting around the wrist would be assessed at either the thumb or fifth digit.\nFor all three hand tremor ratings: 0=no tremor. 1=tremor is barely visible. 1.5=tremor is visible, but less than 1 cm. 2=tremor is 1-<3 cm amplitude. 2.5=tremor is 3-<5 cm amplitude. 3=tremor is 5-<10 cm amplitude. 3.5=tremor is 10-<20 cm amplitude. 4=tremor is >20 cm amplitude.\nAs used herein, “The Essential Tremor Rating Assessment Scale (TETRAS) performance subscale part 4 upper limb tremor total score” refers to the “upper limb tremor” under metric or characteristic 4 of the TETRAS performance subscale set forth above. Each of the three tasks are performed on each limb to give a total of 6 tasks, wherein each task is scored 0, 1, 1.5, 2, 2.5, 3, 3.5, or 4, and each score is added to give a total score no greater than 24.\n[formula] • wherein Tf is a final tremor amplitude; • Ti is an initial tremor amplitude; • Rf is a final tremor rating; • Ri is an initial tremor rating; • α is 0.05; and • N=6, for 6 tasks in TETRAS performance subscale part 4 upper limb tremor total score.\nParticipants were 18 to 80 years of age, inclusive, diagnosed of ET of at least 3 years duration with scores of at least 1.5 for each of the six items that comprised the combined total upper limb TETRAS (total performance subscale part 4) with the total score for the dominant upper limb (the sum of the 3 items for either the right or left upper limb, whichever is dominant) being at least 5.5, at both Screening and predose on Day 1.\nGroups received either Compound 1 as orally administered tablet(s) (each tablet providing 15 mg of Compound 1) or matching placebo at 1:1 ratio. Tablets were formulated as immediate release, white to off-white, round, film-coated tablets containing 15 mg of Compound 1, filler, disintegrant, lubricant, and glidant, wherein the tablets were formed using direct compression and coated with Opadry® II white as the film coating.\nParticipants were randomized to receive Compound 1 60 mg or placebo once daily in the morning on a 1:1 basis. If participants reported a TEAE considered by investigator to be related to Compound 1 and not tolerable, investigator might reduce the dose of Compound 1 from 60 mg in 15 mg decrements (i.e., 60 mg, to 45 mg, to 30 mg), as medically appropriate. If intolerable TEAEs persist at the 30 mg dose, Compound 1 was permanently stopped.\nThis study included a Screening Period of up to 28 days, a 29-day treatment period consisting of 28 days of dosing with the end of treatment visit intended to be on Day 29 at trough, and a 14-day follow-up period relative to final dose. Study patients were not taking other medications for essential tremor during the 28-day treatment period.\nThe model included the change from baseline at each visit as the dependent variable, treatment, baseline TETRAS performance subscale part 4 upper limb tremor score, assessment timepoint, and timepoint-by-treatment as explanatory variables. All explanatory variables were treated as a fixed effect. The main comparison was (difference in least mean square [LSMEAN]) between Compound 1 and placebo at the 29-day timepoint.\nModel-based point estimates (i.e., LSMEAN, 95% confidence intervals, and p-values) were reported where applicable. An unstructured covariance structure was used to model the within-subject errors. […]"}, "[2]": {"system": "individuals with essential tremor", "assay": "Phase 2 study, Compound 1 60 mg once daily for 28 days: TETRAS ADL total score", "assay_type": "in vivo, human"}, "[3]": {"settings": "Per-Protocol Set, Day 15, 5 hr postdose"}, "[4]": {"settings": "Per-Protocol Set, Day 15, 8 hr postdose"}, "[5]": {"settings": "Per-Protocol Set, Day 15, predose"}},
  "data": [
    {"molecule": "COC[C@@]1(O)CC[C@H]2[C@@H](CC[C@@H]3[C@@H]2CC[C@]2(C)[C@@H](C(=O)Cn4nnc(C)n4)CC[C@@H]32)C1", "note": "[Compound 1]", "values": [
      {"measurement": "LSMean difference vs placebo in change from baseline in TETRAS performance subscale part 4 upper limb tremor total score", "setting": "[1]; Full Analysis Set, Day 22", "value": "−0.77"},
      {"measurement": "Model-based LSMean (SE) change from baseline in TETRAS performance subscale part 4 upper limb tremor total score", "setting": "[1]; Full Analysis Set, Day 22", "value": "−2.10 (0.360)"},
      {"measurement": "Frequency of % CFB in tremor amplitude category 15-<30%, number of participants", "setting": "[1]; Full Analysis Set, Day 29", "value": 5},
      {"measurement": "Frequency of % CFB in tremor amplitude category 15-<30%, percent of participants", "setting": "[1]; Full Analysis Set, Day 29", "value": "(23.8)"},
      {"measurement": "Frequency of % CFB in tremor amplitude category 30-<50%, number of participants", "setting": "[1]; Full Analysis Set, Day 29", "value": 6},
      {"measurement": "Frequency of % CFB in tremor amplitude category 30-<50%, percent of participants", "setting": "[1]; Full Analysis Set, Day 29", "value": "(28.6)"},
      {"measurement": "Frequency of % CFB in tremor amplitude category 50-<75%, number of participants", "setting": "[1]; Full Analysis Set, Day 29", "value": 3},
      {"measurement": "Frequency of % CFB in tremor amplitude category 50-<75%, percent of participants", "setting": "[1]; Full Analysis Set, Day 29", "value": "(14.3)"},
      {"measurement": "Frequency of % CFB in tremor amplitude category <15%, number of participants", "setting": "[1]; Full Analysis Set, Day 29", "value": 5},
      {"measurement": "Frequency of % CFB in tremor amplitude category <15%, percent of participants", "setting": "[1]; Full Analysis Set, Day 29", "value": "(23.8)"},
      {"measurement": "Frequency of % CFB in tremor amplitude category >75%, number of participants", "setting": "[1]; Full Analysis Set, Day 29", "value": 2},
      {"measurement": "Frequency of % CFB in tremor amplitude category >75%, percent of participants", "setting": "[1]; Full Analysis Set, Day 29", "value": "(9.5)"},
      {"measurement": "LSMean difference vs placebo in change from baseline in TETRAS performance subscale part 4 upper limb tremor total score", "setting": "[1]; Full Analysis Set, Day 29", "value": "−1.07 (−2.14, −0.00)"},
      {"measurement": "Mean (SD) % CFB in TETRAS performance subscale part 4 upper limb tremor total score", "setting": "[1]; Full Analysis Set, Day 29", "value": "−18.05", "unit": "%"},
      {"measurement": "Model-based LSMean (SE) change from baseline in TETRAS performance subscale part 4 upper limb tremor total score", "setting": "[1]; Full Analysis Set, Day 29", "value": "−2.31 (0.401)"},
      {"measurement": "% CFB in Tremor Amplitude", "setting": "[1]; Full Analysis Set, Day 29, calculated from TETRAS part 4 ratings", "value": "−35.80", "unit": "%"},
      {"measurement": "LSMean difference vs placebo in change from baseline in TETRAS performance subscale part 4 upper limb tremor total score", "setting": "[1]; Full Analysis Set, Day 29, listed as Cmpd 1", "value": "−1.07"},
      {"measurement": "LSMean difference vs placebo in change from baseline in TETRAS performance subscale part 4 upper limb tremor total score", "setting": "[1]; Full Analysis Set, Day 42", "value": 0.62},
      {"measurement": "Model-based LSMean (SE) change from baseline in TETRAS performance subscale part 4 upper limb tremor total score", "setting": "[1]; Full Analysis Set, Day 42", "value": "−1.23 (0.407)"},
      {"measurement": "LSMean difference vs placebo in change from baseline in TETRAS performance subscale part 4 upper limb tremor total score", "setting": "[1]; Per-Protocol Set, Day 8", "value": "−0.97"},
      {"measurement": "Model-based LSMean (SE) change from baseline in TETRAS performance subscale part 4 upper limb tremor total score", "setting": "[1]; Per-Protocol Set, Day 8", "value": "−1.78 (0.319)"},
      {"measurement": "LSMean difference vs placebo in change from baseline in TETRAS performance subscale part 4 upper limb tremor total score", "setting": "[1]; [3]", "value": "−0.71"},
      {"measurement": "Model-based LSMean (SE) change from baseline in TETRAS performance subscale part 4 upper limb tremor total score", "setting": "[1]; [3]", "value": "−2.83 (0.500)"},
      {"measurement": "LSMean difference vs placebo in change from baseline in TETRAS performance subscale part 4 upper limb tremor total score", "setting": "[1]; [4]", "value": "−0.70"},
      {"measurement": "Model-based LSMean (SE) change from baseline in TETRAS performance subscale part 4 upper limb tremor total score", "setting": "[1]; [4]", "value": "−2.66 (0.500)"},
      {"measurement": "LSMean difference vs placebo in change from baseline in TETRAS performance subscale part 4 upper limb tremor total score", "setting": "[1]; [5]", "value": "−0.83"},
      {"measurement": "Model-based LSMean (SE) change from baseline in TETRAS performance subscale part 4 upper limb tremor total score", "setting": "[1]; [5]", "value": "−1.94 (0.367)"},
      {"measurement": "LSMean difference vs placebo in change from baseline in TETRAS performance subscale part 4 upper limb tremor total score", "setting": "[1]; Per-Protocol Set, Day 22", "value": "−1.15"},
      {"measurement": "Model-based LSMean (SE) change from baseline in TETRAS performance subscale part 4 upper limb tremor total score", "setting": "[1]; Per-Protocol Set, Day 22", "value": "−2.38 (0.408)"},
      {"measurement": "LSMean difference vs placebo in change from baseline in TETRAS performance subscale part 4 upper limb tremor total score", "setting": "[1]; Per-Protocol Set, Day 29", "value": "−1.37"},
      {"measurement": "Model-based LSMean (SE) change from baseline in TETRAS performance subscale part 4 upper limb tremor total score", "setting": "[1]; Per-Protocol Set, Day 29", "value": "−2.50 (0.452)"},
      {"measurement": "LSMean difference vs placebo in change from baseline in TETRAS performance subscale part 4 upper limb tremor total score", "setting": "[1]; Per-Protocol Set, Day 42", "value": 0.36},
      {"measurement": "Model-based LSMean (SE) change from baseline in TETRAS performance subscale part 4 upper limb tremor total score", "setting": "[1]; Per-Protocol Set, Day 42", "value": "−1.48 (0.474)"},
      {"measurement": "Percent reduction from baseline in tremor amplitude", "setting": "[1]; subjects with baseline TETRAS performance subscale part 4 upper limb tremor total score ≥12", "value": 41, "unit": "%"},
      {"measurement": "LSMean Difference (CI) vs placebo in CFB in TETRAS ADL total score", "setting": "[2]; Baseline TETRAS ADL ≥ 28, Day 29", "value": "−1.47"},
      {"measurement": "LSMean difference vs placebo in change from baseline in TETRAS ADL total score", "setting": "[2]; Full Analysis Set, Day 8", "value": "−2.80"},
      {"measurement": "Change from baseline in TETRAS ADL subscale total score compared with placebo, in words", "setting": "[2]; Full Analysis Set, Day 29", "value": "numerically superior to placebo but failed to reach statistical significance"},
      {"measurement": "LSMean difference vs placebo in change from baseline in TETRAS ADL total score", "setting": "[2]; Full Analysis Set, Day 29", "value": "−1.37 (−3.81, 1.08)"}
    ]}
  ]
}
